The source made the active and inactive calls. The calls are words filed in the database; no cut-off is given here.
What was measured:
[1] = target: Exportin-1 (Homo sapiens) (UniProt O14980); assay: Inhibition of human wild type CRM1 assessed as C528 conjugation at 20 uM incubated for 2 hrs before binding by coomassie blue staining based pull-down assay
[2] = test system: Exportin-1 (Homo sapiens), O14980 [C528S]; assay: Inhibition of human CRM1-C528S mutant assessed as C528 conjugation at 20 uM incubated for 2 hrs before binding by coomassie blue staining based pull-down assay
Exportin-1 (Homo sapiens), O14980 [C528S], sequence (O14980 whole entry C528S, the tested form may be a part): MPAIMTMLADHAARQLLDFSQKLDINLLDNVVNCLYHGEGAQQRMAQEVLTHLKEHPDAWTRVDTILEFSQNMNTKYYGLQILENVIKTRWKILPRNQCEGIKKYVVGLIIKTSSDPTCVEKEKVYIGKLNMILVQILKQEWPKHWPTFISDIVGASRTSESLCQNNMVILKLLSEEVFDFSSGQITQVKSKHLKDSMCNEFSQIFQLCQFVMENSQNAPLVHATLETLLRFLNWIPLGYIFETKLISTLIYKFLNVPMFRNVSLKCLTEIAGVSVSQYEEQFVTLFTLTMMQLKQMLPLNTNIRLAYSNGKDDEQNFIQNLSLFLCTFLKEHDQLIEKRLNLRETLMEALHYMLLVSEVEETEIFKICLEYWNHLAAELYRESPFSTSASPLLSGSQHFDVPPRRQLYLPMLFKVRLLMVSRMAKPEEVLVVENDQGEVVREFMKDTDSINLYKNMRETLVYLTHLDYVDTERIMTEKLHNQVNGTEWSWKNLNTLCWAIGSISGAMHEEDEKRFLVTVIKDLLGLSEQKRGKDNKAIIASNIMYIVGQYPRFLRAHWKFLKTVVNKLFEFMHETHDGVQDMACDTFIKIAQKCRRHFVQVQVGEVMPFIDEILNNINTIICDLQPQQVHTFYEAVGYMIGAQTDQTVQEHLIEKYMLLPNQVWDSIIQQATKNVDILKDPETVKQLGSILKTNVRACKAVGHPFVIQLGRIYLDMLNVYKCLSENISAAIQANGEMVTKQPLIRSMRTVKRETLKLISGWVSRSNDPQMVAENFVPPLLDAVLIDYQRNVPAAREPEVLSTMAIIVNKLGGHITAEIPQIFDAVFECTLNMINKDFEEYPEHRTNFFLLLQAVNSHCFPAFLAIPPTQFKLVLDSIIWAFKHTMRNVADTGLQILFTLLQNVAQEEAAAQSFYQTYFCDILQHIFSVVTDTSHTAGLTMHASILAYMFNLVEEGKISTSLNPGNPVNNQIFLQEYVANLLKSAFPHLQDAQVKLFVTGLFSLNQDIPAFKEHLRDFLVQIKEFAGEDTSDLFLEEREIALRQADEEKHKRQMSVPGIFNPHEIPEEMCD

Saccharomyces cerevisiae [3] = assay: Inhibition of Yeast GST-tagged/TEV cleavage site fused CRM1 C152/C539/D1034A triple mutant expressed in Escherichia coli BL21 (DE3) assessed as decrease in NES binding at 60 uM measured after 2 hrs by coomassie blue staining based pull-down assay
Saccharomyces cerevisiae [4] = assay: Inhibition of Yeast GST-tagged/TEV cleavage site fused CRM1 C152/C539 double mutant expressed in Escherichia coli BL21 (DE3) assessed as C1022 conjugation mediated NES inhibition at 60 uM measured after 2 hrs by coomassie blue staining based pull-down assay
[5] = target: Exportin-1 (Homo sapiens) (UniProt O14980); assay: Inhibition of human CRM1-WT assessed as C528 conjugation at 1 uM incubated for 2 hrs before binding by coomassie blue staining based pull-down assay

Exportin-1 (Homo sapiens), sequence (O14980 whole entry): as the sequence (O14980 whole entry C528S, the tested form may be a part) above, with S528C counted along it

Row | SMILES | inhibition [1] | inhibition [2] | inhibition (Saccharomyces cerevisiae [3]) | inhibition (Saccharomyces cerevisiae [4]) | inhibition [5]
1 | O=C(/C=C\n1cnc(-c2cc(C(F)(F)F)cc(C(F)(F)F)c2)n1)NNc1cnccn1 | Active | Active |  |  | 
2 | CC1=CC(=O)c2c(O)cccc2C1=O | Active | Active | Active |  | 
3 | C=C1C(=O)[C@]23[C@H](O)[C@H]1CC[C@H]2[C@@]12CO[C@]3(O)[C@@H](O)[C@@H]1C(C)(C)CC[C@@H]2O | Active | Active | Active | Active | inactive

From ChEMBL document CHEMBL4842311, “Novel Mechanistic Observations and NES-Binding Groove Features Revealed by the CRM1 Inhibitors Plumbagin and Oridonin” (J Nat Prod, 2021)
